From patent US6787532B2, “Formulation containing anti-inflammatory androstane derivatives” (SmithKline Beecham Corporation, priority 2000, dated 2004)
In brackets after ≈: the same amount, converted by molar mass. Entries after “also recorded” stand apart in the source; their conditions may differ. Where two headings read alike, the source gives them in different places.

Legend:
[1] = Solubility in water with surfactants and co-solvating agents; format: physicochemical
Excerpt: As noted above, this improved process permits solutions of higher concentration to be prepared than is possible by conventional techniques.

lung eosinophilia = test: Ovalbumin sensitised Brown Norway rat eosinophilia model; format: in vivo; settings: single intra-tracheal dose of 30 μg, suspension in saline, 30 min prior to ovalbumin challenge
Experimental: Pharmacological activity in vivo was assessed in an-ovalbumin sensitised Brown Norway rat eosinophilia model. This model is designed to mimic allergen induced lung eosinophilia, a major component of lung inflammation in asthma.

[2] = Pharmacokinetics after intravenous administration in the anaesthetised pig; format: in vivo; settings: intravenous mixture of the two compounds at 0.1 mg/kg
Excerpt: The clearance of these two glucocorticoids is similar is this experimental pig model.

[3] = Pharmacokinetics after intra-tracheal dry powder dosing in the pig; format: in vivo; settings: for time after dosing up to which quantifiable in plasma / Cmax / AUC(0-inf): pig; for time after dosing up to which quantifiable in plasma: intra-tracheal 1 mg, LLOQ 10 and 20 pg/mL; for Cmax / AUC(0-inf): plasma, 1 mg; for Cmax: inhaled or intranasal; for AUC(0-inf): iv, compound (I) calculated with IV half-life
Experimental: Serial blood samples were taken for up to 8 h following dosing.

[4] = Pharmacokinetics after intravenous and oral dosing in rats; format: in vivo; settings: male, Wistar Han, plasma, rat; for clearance: IV 0.1 mg/kg
thymus involution = test: Rat model of thymus involution; format: in vivo; settings: 3 daily IT doses of 100 μg
[5] = biological target: T1, glucocorticoid receptor (GR) (Homo sapiens, UniProt P04150); test: Transactivation (GR): A549 cells with renilla luciferase reporter under glucocorticoid response elements; format: cell-based; settings: renilla luciferase GRE reporter, read-out: Transactivation (GR) ED50
Excerpt: (§1) The glucocorticoid receptor (GR) can function in at least two distinct mechanisms, by upregulating gene expression through the direct binding of GR to specific sequences in gene promotors, and by downregulating gene expression that is being driven by other transcription factors (such as NFκB or AP-1) through their direct interaction with GR.
(§2) The first cell line contains the firefly luciferase reporter gene under the control of a synthetic promoter that specifically responds to activation of the transcription factor NFκB when stimulated with TNFα. The second cell line contains the renilla luciferase reporter gene under the control of a synthetic promotor that comprises 3 copies of the consensus glucocorticoid response element, and which responds to direct stimulation by glucocorticoids. Simultaneous measurement of transactivation and transrepression was conducted by mixing the two cell lines in a 1:1 ratio in 96 well plate (40,000 cells per well) and growing overnight at 37° C. Test compounds were dissolved in DMSO, and added to the cells at a final DMSO concentration of 0.7%. After incubation for 1 h 0.5 ng/ml TNFα (R&D Systems) was added and after a further 15 hours at 37° C., the levels of firefly and renilla luciferase were measured using the Packard Firelite kit following the manufacturers' directions. Dose response curves were constructed from which EC50 values were determined.

[6] = biological target: T1, glucocorticoid receptor (GR); test: Transrepression (NFκB): A549 cells with firefly luciferase NFκB reporter, TNFα stimulated; format: cell-based; settings: 0.5 ng/ml TNFα, read-out: Transrepression (NFκB) ED50
Excerpt: as §1, §2

glucocorticoid receptor = biological target: T2, glucocorticoid receptor (Homo sapiens, UniProt P04150); test: In vitro functional glucocorticoid assays, metabolite versus parent; format: cell-based
T2 sequence (P04150 1-777): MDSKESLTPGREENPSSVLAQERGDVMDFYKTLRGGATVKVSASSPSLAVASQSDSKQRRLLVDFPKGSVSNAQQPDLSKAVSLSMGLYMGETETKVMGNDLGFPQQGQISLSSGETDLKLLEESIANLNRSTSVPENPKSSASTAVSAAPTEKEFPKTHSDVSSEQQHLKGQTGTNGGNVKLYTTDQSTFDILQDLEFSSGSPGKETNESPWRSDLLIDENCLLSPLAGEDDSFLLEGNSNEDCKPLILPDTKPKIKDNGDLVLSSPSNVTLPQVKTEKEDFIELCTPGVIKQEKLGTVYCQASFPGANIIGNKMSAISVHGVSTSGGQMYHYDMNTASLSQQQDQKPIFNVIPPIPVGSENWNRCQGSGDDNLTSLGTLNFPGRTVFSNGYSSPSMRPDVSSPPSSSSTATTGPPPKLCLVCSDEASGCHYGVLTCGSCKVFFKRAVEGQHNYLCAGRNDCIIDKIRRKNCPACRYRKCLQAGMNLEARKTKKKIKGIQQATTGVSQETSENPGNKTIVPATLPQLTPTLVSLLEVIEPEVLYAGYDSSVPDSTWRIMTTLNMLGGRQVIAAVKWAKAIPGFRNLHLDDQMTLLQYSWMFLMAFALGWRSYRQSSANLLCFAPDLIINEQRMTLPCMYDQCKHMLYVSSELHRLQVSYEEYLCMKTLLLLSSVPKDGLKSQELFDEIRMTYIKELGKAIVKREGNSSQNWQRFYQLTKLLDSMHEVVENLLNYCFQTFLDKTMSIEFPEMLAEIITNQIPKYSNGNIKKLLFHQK
Experimental: Compound (I) wherein R represents furan-2-yl undergoes highly efficient hepatic metabolism to yield the 17-β carboxylic acid (X) as the sole major metabolite in rat and human in vitro systems. […] Pharmacological activity was assessed in a functional in vitro assay of glucocorticoid agonist activity which is generally predictive of anti-inflammatory or anti-allergic activity in vivo.

[7] = 5% Tyloxapol, aqueous with cosolvent or surfactant or cyclodextrin, 5% Tyloxapol, process performed at 60-70° C., read-out: solubility
[8] = 5% Tyloxapol, aqueous with cosolvent or surfactant or cyclodextrin, 5% Tyloxapol, process performed at room temperature, read-out: solubility
[9] = water, aqueous with cosolvent or surfactant or cyclodextrin, in water, Triton X-100 2% w/w, read-out: Solubility
[10] = water, aqueous with cosolvent or surfactant or cyclodextrin, in water, Tyloxapol 2% w/w, read-out: Solubility
[11] = water, aqueous with cosolvent or surfactant or cyclodextrin, in water, Tyloxapol 5% w/w and PEG200 10% w/w, read-out: Solubility
[12] = water, aqueous with cosolvent or surfactant or cyclodextrin, in water, Tyloxapol 5% w/w, read-out: Solubility
[13] = water, in water, no surfactant, read-out: Solubility
[14] = Pig 1, intra-tracheal dry powder 1 mg
[15] = Pig 2, intra-tracheal dry powder 1 mg

Question: For `C[C@@H]1C[C@H]2[C@@H]3C[C@H](F)C4=CC(=O)C=C[C@]4(C)[C@@]3(F)[C@@H](O)C[C@]2(C)[C@@]1(OC(=O)c1ccco1)C(=O)SCF` [Compound of Formula (I), 6α, 9α-difluoro-17α-[(2-furanylcarbonyl)oxy]-11β-hydroxy-16α-methyl-3-oxo-androsta-1,4-diene-17β-carbothioic acid S-fluoromethyl ester], which solubility [1, 7] is on record?
Answer: 344 µg/mL

Question: And the solubility [1, 8]?
Answer: 233 µg/mL

Question: What about the solubility ([1]; water, aqueous with cosolvent or surfactant or cyclodextrin, in water, Triton X-100 0.5% w/w, read-out: Solubility) of the same molecule?
Answer: 18 µg/mL

Question: What about the solubility [1, 9] of the same molecule?
Answer: 266 µg/mL

Question: What about the solubility ([1]; water, aqueous with cosolvent or surfactant or cyclodextrin, in water, Triton X-100 5% w/w and PEG200 10% w/w, read-out: Solubility) of the same molecule?
Answer: 840 µg/mL

Question: What about the solubility ([1]; water, aqueous with cosolvent or surfactant or cyclodextrin, in water, Triton X-100 5% w/w, read-out: Solubility) of the same molecule?
Answer: 549 µg/mL

Question: And the solubility ([1]; water, aqueous with cosolvent or surfactant or cyclodextrin, in water, Triton X-305 5% w/w, read-out: Solubility)?
Answer: 204 µg/mL

Question: And the solubility [1, 10]?
Answer: 95 µg/mL

Question: What about the solubility ([1]; water, aqueous with cosolvent or surfactant or cyclodextrin, in water, Tyloxapol 5% w/w and Dextrose 4% w/w, read-out: Solubility) of the same molecule?
Answer: 526 µg/mL

Question: And the solubility [1, 11]?
Answer: 836 µg/mL

Question: What about the solubility ([1]; water, aqueous with cosolvent or surfactant or cyclodextrin, in water, Tyloxapol 5% w/w and Propylene glycol 10% w/w, read-out: Solubility) of the same molecule?
Answer: 422 µg/mL

Question: And the solubility ([1]; water, aqueous with cosolvent or surfactant or cyclodextrin, in water, Tyloxapol 5% w/w, no co-solvating agent, read-out: Solubility)?
Answer: 344 µg/mL

Question: What about the solubility [1, 12] of the same molecule?
Answer: 307 µg/mL

Question: And the solubility ([1]; water, aqueous with cosolvent or surfactant or cyclodextrin, in water, Tyloxapol 6% w/w, read-out: Solubility)?
Answer: 346 µg/mL

Question: And the solubility ([1]; water, aqueous with cosolvent or surfactant or cyclodextrin, in water, Tyloxapol 7.5% w/w, read-out: Solubility)?
Answer: 576 µg/mL

Question: What about the solubility ([1]; water, aqueous with cosolvent or surfactant or cyclodextrin, in water, Tyloxapol 10% w/w, read-out: Solubility) of the same molecule?
Answer: 585 µg/mL

Question: What about the solubility [1, 13] of the same molecule?
Answer: < 1 µg/mL

Question: And the “inhibition of lung eosinophilia” value (lung eosinophilia)?
Answer: 69%

Question: And the “pharmacokinetic parameters, compound (I) versus fluticasone propionate” value [2]?
Answer: the same

Question: And the “systemic exposure compared to fluticasone propionate” value ([3]; anaesthetised pigs, dry powder delivery to the lungs)?
Answer: markedly reduced systemic exposure; also recorded: significantly lower exposure

Question: And the “time after dosing up to which quantifiable in plasma” value [3]?
Answer: up to 2 hours

Question: And the Cmax [3, 14]?
Answer: 0.117 ng/mL

Question: What about the Cmax [3, 15] of the same molecule?
Answer: 0.081 ng/mL

Question: What about the AUC(0-inf) [3, 14] of the same molecule?
Answer: 0.254 ng·h/mL

Question: And the AUC(0-inf) [3, 15]?
Answer: 0.221 ng·h/mL

Question: What about the clearance [4] of the same molecule?
Answer: 47.3 mL/min/kg

Question: What about the bioavailability ([4]; oral, 0.1 mg/kg, oral 0.1 mg/kg and IV 0.1 mg/kg) of the same molecule?
Answer: 0.9%

Question: And the “reduction of thymus weight” value (thymus involution)?
Answer: 67%

Question: Which results are given for `CCC(=O)O[C@]1(C(=O)SCF)[C@H](C)C[C@H]2[C@@H]3C[C@H](F)C4=CC(=O)C=C[C@]4(C)[C@@]3(F)[C@@H](O)C[C@@]21C` [Fluticasone propionate, 6α, 9α-Difluoro-17α-(1-oxopropoxy)-11β-hydroxy-16α-methyl-3-oxo-androsta-1,4-diene-17-0-carbothioic acid S-fluoromethyl ester, reference compound]?
Answer: solubility [1, 7]: 133 µg/mL (≈ 266 µM); solubility [1, 8]: 87 µg/mL (≈ 174 µM); solubility ([1]; in water, Labrasol 10% w/w): None detected; solubility ([1]; in water, Triton X-45 5% w/w): None detected; solubility ([1]; water, aqueous with cosolvent or surfactant or cyclodextrin, in water, Sodium chenodesoxycholate 5% w/w, read-out: Solubility): 5.9 µg/mL (≈ 11.8 µM); solubility ([1]; water, aqueous with cosolvent or surfactant or cyclodextrin, in water, Sodium cholate 2% w/w, read-out: Solubility): 11 µg/mL (≈ 22 µM); solubility ([1]; water, aqueous with cosolvent or surfactant or cyclodextrin, in water, Sodium cholate 20% w/w, read-out: Solubility): 140 µg/mL (≈ 280 µM); solubility [1, 9]: 69 µg/mL (≈ 138 µM); solubility [1, 10]: 41 µg/mL (≈ 81.9 µM); solubility [1, 11]: 207 µg/mL (≈ 414 µM); solubility ([1]; water, aqueous with cosolvent or surfactant or cyclodextrin, in water, Tyloxapol 5% w/w and Phospatidyl choline 1% w/w, read-out: Solubility): 197 µg/mL (≈ 394 µM); solubility [1, 12]: 133 µg/mL (≈ 266 µM); solubility [1, 13]: < 1 µg/mL; pharmacokinetic parameters, compound (I) versus fluticasone propionate [2]: the same; time after dosing up to which quantifiable in plasma [3]: up to 8 hours; Cmax [3, 14]: 0.277 ng/mL; Cmax [3, 15]: 0.218 ng/mL; AUC(0-inf) [3, 14]: 0.455 ng·h/mL; AUC(0-inf) [3, 15]: 0.495 ng·h/mL; clearance [4]: 45.2 mL/min/kg; reduction of thymus weight (thymus involution): 78%

Question: What does the source list for `C[C@@H]1CC2C3C[C@H](F)C4=CC(=O)C=C[C@]4(C)[C@@]3(F)[C@@H](O)C[C@]2(C)[C@@]1(OC(=O)c1ccco1)C(=O)O` (stereo partly shown) [Metabolite (X)]?
Answer: EC50 [5]: < 250 nM; EC50 [6]: > 1000 nM; fold less active than the parent compound (glucocorticoid receptor): > 1000 fold
